The values that follow come from patent US8999984B2, “Macrophage migration inhibitory factor antagonists and methods of using same” (University of Louisville Research Foundation, Inc., priority 2006, dated 2015).

Data set [1] has as its system HIF-1α. Put plainly: CoCl2-induced HIF-1α stabilization in MIA-PaCa pancreatic adenocarcinoma cells (nuclear lysate immunoblot). The class given is cell-based, human. As to the method: (§1) FIGS. 9A-9C are pictures of immunoblots showing MIF tautomerase inhibitors block HIF-1 stabilization in an MIF-specific manner. […] After 5 hours, nuclear lysates were isolated and subjected to immunoblotting for HIF-1. In FIGS. 9A and 9B, MIA-PaCa pancreatic adenocarcinoma cells were used. In FIG. 9C, MIF+/+ and MIF−/− mouse embryonic fibroblasts were evaluated.
As noted hereinabove, (see FIG. 4), it has been determined that MIF is necessary for hypoxia and prolyl hydroxylase inhibitor-induced HIF-1αstabilization and subsequent hypoxic adaptation of pancreatic adenocarcinoma cells. It was next tested whether MIF pharmacologic inhibitors were capable of recapitulating the destabilizing effects on HIF-1α we had observed using MIF siRNA (FIG. 4). In addition to testing the newly-determined MIF antagonist 4-iodo-6-phenylpyrimidine (also referred to as “compound #16”), the TI compound identified in the Orita screen (FIG. 8) was also tested.

Data set [2] deals with HIF-1α. Put plainly: HIF-1α stabilization in MIF-containing and MIF-deficient mouse embryonic fibroblasts. The class given is cell-based. The conditions noted are these: FIG. 9C. The method, then: as §1
Lastly, in order to verify that the effect of #16 on HIF-1α inhibition is through its inhibitory effects on MIF, MIF-containing cells and MIF-deficient cells were tested for inhibitory activity.

Data set [3] has as its system A549 human lung adenocarcinoma cells. Put plainly: A549 anchorage-independent growth in soft agar. The class given is cell-based. The conditions noted are these: FIG. 11. The method, then:
FIG. 11 is a graph showing inhibitors of MIF prevent anchorage-independent growth. 10^5 A549 human lung adenocarcinoma cells were plated in soft agar, containing vehicle (0.1% DMSO) or 10, 50 or 100 μM ISO-1 or 4-iodo-6-phenylpyrimidine (CMPD 16). 20 days later, colonies were stained and enumerated. Data are representative of two independent experiments.

Data set [4] in a line: MTD / toxicity study, daily injections for 7 days. The class given is in vivo. The conditions noted are these: daily injections for 7 days of 0.5, 1, 2 and 4 mg (25, 50, 100 and 200 mg/kg). The text has this:
(§2) A study to determine the MTD and in vivo inhibitory activity of compound #16 was also completed. […] In vivo enzyme inhibition by compound #16 was next analyzed. […] Further, the discovery of the present MIF inhibitory compounds of Formula I disclosed herein by the present novel virtual screening and systematic testing methods validates the present approach and experimental design to identify further MIF small molecule inhibitors.

The target of a further data set is T1, endogenous liver MIF (Mus musculus, UniProt P34884).
T1 construct: from tissue; host or cells: mouse liver homogenate
Put plainly: In vivo inhibition of liver MIF tautomerase activity. Also on record: species or system C57BI/6 mice. The conditions noted are these: single bolus injection 50 mg/kg, 6 hours post-injection, FIG. 13, read-out: inhibition of endogenous liver MIF enzyme tautomerase activity. As to the method:
FIG. 13 is a graph showing the MIF inhibitor 4-iodo-6-phenyl pyrimidine inhibits MIF in vivo. C57BI/6 mice were injected with corn oil or 1 mg 4-iodo-6-phenyl pyrimidine (# 16) suspended in corn oil for 6 hours before removal of the livers. After homogenizing tissue, […] total liver protein was assessed for L-dopachrome methyl ester tautomerase activity.
as §2

Data set [5] deals with HIF-1α. Put plainly: Total HIF-1α ELISA, CoCl2-induced HIF stabilization. The class given is cell-based. The conditions noted are these: Homo sapiens, compound #16 at 50 μM, read-out: inhibition of CoCl2-induced HIF stabilization, of control. The text has this:
Screening of HIF-1α de-stabilization by candidate MIF inhibitors. The presently disclosed discovery that MIF plays a central role in HIF stability was from studies done in pancreatic adenocarcinoma cell lines. […] This cell line can be utilized for large scale testing of candidate MIF antagonists. In order to scale up this in vitro screen, a DuoSet ELISA-based assay to detect total HIF-1α in human cell lysates can be utilized (R & D Systems). […] MIA-Paca-2 cells can be plated at 5×10^5 cells/well in 24 well plates for 16 hours. Media can be replaced with fresh media containing 0.1% DMSO (− control), 50 μM #16 (+ control) and 5, 50 μM concentrations of test inhibitor, all in duplicate wells. After 1 hour, cells can be challenged with 150 μM CoCl2 for an additional 6 hours. After rinsing the cells twice with PBS, supplied kit lysis buffer can be used to lyse the cells following manufacturer's directions. Prior coating and blocking of HIF-1α capture antibody can be performed according to instructions and diluted cell lysates can be assayed on the HIF-1α ELISA plates.
On the technique in general: ELISA stands for enzyme-linked immunosorbent assay.

Structures are written as SMILES.

The term inhibition denotes the relative decrease from the control value, in per cent. As for `Ic1cc(-c2ccccc2)ncn1` [compound #16, 4-iodo-6-phenylpyrimidine], the “suppression of HIF-1α, of control” value in the data set on HIF-1α [1] (10 μM, FIG. 9B) is on record as around 50%. The “inhibition of CoCl2-induced HIF-1α stabilization” value in the data set with HIF-1α [1] (100 μM, pancreatic carcinoma cells, FIG. 9A) was “completely inhibited”. Also, the “difference in biological inhibitory activity (HIF-1α) between #16 and TI” value in the data set on HIF-1α [1] (4-iodo-6-phenylpyrimidine versus TI) is around 5 fold. The “HIF-1α stabilization block in MIF-containing fibroblasts” value in the data set with HIF-1α [2] (MIF^+/− murine embryonic fibroblasts) is “potently blocks”. In addition, in the data set with HIF-1α [2] (MIF^−/− fibroblasts), the “HIF-1α stabilization in MIF-deficient fibroblasts” value is on record as “unaffected”. The “inhibition of A549 soft agar growth” value in data set [3] (10, 50 or 100 μM, 20 days) was “inhibit A549 soft agar growth”. Further, the “potency relative to ISO-1, soft agar growth” value in data set [3] is 5-10 fold. For the same compound, in data set [4], the toxicity entry was “no apparent toxicity”. Also, the inhibition at 50 mg/kg on endogenous liver MIF is above 50%. Besides, the inhibition at 50 µM with HIF-1α [5] is 75 to 90%.
